Like-named read-outs stand apart in the source and are kept apart here.
System: ring stage parasites
Test: Parasite growth potency assay, 72 hours, LDH readout
Type: cell-based
Conditions: parasite growth measured by LDH assay after 72 hours at 37° C., 0.7% rings, 2% haematocrit, read-out: EC50
Summary of the method: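 Parasite growth was quantified by LDH assay after a −80 °C freeze-thaw. Before that, compound was incubated for 72 h at 37 °C under humidified gas with ring-stage cultures adjusted to 0.7% parasitemia and 2% haematocrit in serum- and albumax-supplemented RPMI-Hepes.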

| Compound | EC50 (72 h) | EC50 (trifluoroacetate) |
| --- | --- | --- |
| CCC1(CC)CC(=O)N(Cc2cccc(C(=O)N[C@H]3CC(C)(C)Oc4ccc(F)cc43)c2)C(=N)N1 (stereo in doubt) [Example 88, [4,4-diethyl-1-[[3-[(6-fluoro-2,2-dimethyl-chroman-4-yl)carbamoyl]phenyl]methyl]-6-oxo-hexahydropyrimidin-2-ylidene]ammonium; 2,2,2-trifluoroacetate] | 0.4 nM |  |
| CCC1(CC)CC(=O)N([C@H](C)c2cccc(C(=O)N[C@@H]3c4ccccc4OC[C@]3(C)O)c2)C(=N)N1 [Example 205B, [4,4-diethyl-1-[(1R)-1-[3-[[(3R,4R)-3-hydroxy-3-methyl-chroman-4-yl]carbamoyl]phenyl]ethyl]-6-oxo-hexahydropyrimidin-2-ylidene]ammonium; 2,2,2-trifluoroacetate] |  | 1.9 nM |
| CCC1(CC)CC(=O)N(Cc2cncc(C(=O)N[C@H]3CCOc4ccccc43)c2)C(=N)N1 [Example 24, [1-[[5-[[(4S)-chroman-4-yl]carbamoyl]-3-pyridyl]methyl]-4,4-diethyl-6-oxo-hexahydropyrimidin-2-ylidene]ammonium; 2,2,2-trifluoroacetate] | 10.1 nM |  |
| CCC1(CC)CC(=O)N([C@H](c2ccc(S(C)(=O)=O)cc2)c2cccc(C(=O)N[C@@H]3c4ccccc4C[C@H]3O)c2)C(=N)N1 [Example 116, [4,4-diethyl-1-[[3-[[(1R,2R)-2-hydroxyindan-1-yl]carbamoyl]phenyl]-(4-methylsulfonylphenyl)methyl]-6-oxo-hexahydropyrimidin-2-ylidene]ammonium; chloride] | 6.8 nM |  |
| CCC1(CC)CC(=O)N([C@H](c2cccnc2)c2cccc(C(=O)N[C@H]3CC(C)(C)Oc4ccccc43)c2)C(=N)N1 [Example 100A, [1-[[3-[[(4S)-2,2-dimethylchroman-4-yl]carbamoyl]phenyl]-pyridin-1-ium-3-yl-methyl]-4,4-diethyl-6-oxo-hexahydropyrimidin-2-ylidene]ammonium; 2,2,2-trifluoroacetate] | 0.4 nM |  |
| CCC1(CC)CC(=O)N([C@H](CCOC)c2cccc(C(=O)N[C@H]3C[C@H](C(F)(F)F)Oc4ccccc43)c2)C(=N)N1 [Example 132B, [4,4-diethyl-1-[3-methoxy-1-[3-[[(2R,4S)-2-(trifluoromethyl)chroman-4-yl]carbamoyl]phenyl]propyl]-6-oxo-hexahydropyrimidin-2-ylidene]ammonium; 2,2,2-trifluoroacetate] | 0.9 nM |  |
| CCC[C@H](c1cccc(C(=O)N[C@H]2CCOc3ccccc32)c1)N1C(=N)N[C@@](CC2CC2)(c2ccccc2)CC1=O [Example 64, [(4R)-1-[(1R)-1-[3-[[(4S)-chroman-4-yl]carbamoyl]phenyl]butyl]-4-(cyclopropylmethyl)-6-oxo-4-phenyl-hexahydropyrimidin-2-ylidene]ammonium; 2,2,2-trifluoroacetate] | 75.4 nM |  |
| CCC1(CC)CC(=O)N([C@H](CCOC)c2cccc(C(=O)N[C@H]3c4cc(F)ccc4OC(C)(C)[C@@H]3O)c2)C(=N)N1 [Example 165A, [4,4-diethyl-1-[(1R)-1-[3-[[(3R,4S)-6-fluoro-3-hydroxy-2,2-dimethyl-chroman-4-yl]carbamoyl]phenyl]-3-methoxy-propyl]-6-oxo-hexahydropyrimidin-2-ylidene]ammonium; 2,2,2-trifluoroacetate] | 41.4 nM |  |
| N=C1N[C@@](CC2CC2)(c2ccccc2)CC(=O)N1Cc1cc(F)cc(C(=O)N[C@H]2CCOc3ccccc32)c1 [Example 5A, [(4R)-1-[[3-[[(4S)-chroman-4-yl]carbamoyl]-5-fluoro-phenyl]methyl]-4-(cyclopropylmethyl)-6-oxo-4-phenyl-hexahydropyrimidin-2-ylidene]ammonium; 2,2,2-trifluoroacetate] | 16.2 nM |  |
| CCC1(CC)CC(=O)N(Cc2cncc(C(=O)NC3CC(C)(C)Oc4ccccc43)c2)C(=N)N1 (stereo not shown) [Example 81, [1-[[5-[(2,2-dimethylchroman-4-yl)carbamoyl]pyridin-1-ium-3-yl]methyl]-4,4-diethyl-6-oxo-hexahydropyrimidin-2-ylidene]ammonium; 2,2,2-trifluoroacetate] |  | 1.3 nM |

From US12629374B2, “Antimalarial agents” (Merck Sharp & Dohme LLC, priority 2020, dated 2026)
